Results taken from patent publication US7772192B2, “Compositions and methods for treatment of disease with acetylated disaccharides” (The Regents of the University of California, priority 2003, dated 2010).

Assays:
[1] = tested on: sLe^X on LS180 cell surface; assay: ELISA with CSLEX-1 mAb of cell-surface sLe^X; format: cell-based, human; details: LS180 cells
[2] = tested on: LLC cells; assay: Spontaneous tumor metastasis of LLC cells, compound by osmotic pump; format: in vivo, mice; details: ~1 mg/day/mouse, 4 weeks
Description: Osmotic pumps (ref 4) containing vehicle or peracetylated GlcNAcβ3Gal-NM were surgically implanted in a dorsal skin fold of Es1(e) mice and LLC cells (5×10^5) were implanted subcutaneously in the hindquarter. The dose rate of compound was ˜1 mg/day/mouse. Panel A. To detect tumor cells in the lungs, after 4 weeks each animal was injected intraperitoneally with 1 mg of BrdU (bromodeoxyuridine (BrdU), which is taken up by dividing cells—tumor cells, and therefore indicates the quantity of tumor cells in the lungs when cells from the lungs are stained with anti-BrdU antibodies). The animals were sacrificed, the heart was perfused with PBS and the lungs removed. Each lung was incubated with collagenase (10 mg/ml, 1 h, 37° C.), syringed through an 18-gauge needle and filtered through a […] nylon filter, and cells were fixed (70% ethanol, 1×10^6 cells/ml). The relative number of BrdU-labeled cells in the lungs was determined by flow cytometry (FACS) using a mouse anti-BrdU-FITC antibody. Control experiments used mouse IgG-FITC antibody. Statistics were calculated by one-way ANOVA tests comparing three groups of 4-7 animals. […] Statistics were calculated by student t-test comparing two groups of 4-7 animals.

[3] = tested on: sialyl Lewis X in HL-60, LS180, murine Lewis lung carcinoma, B16 murine melanoma cells; assay: Inhibition of sialyl Lewis X formation in cultured cells; format: cell-based
From the text: The disaccharides can be acylated with, e.g., acetyl, butyryl or benzoyl groups to reduce their hydrophilicity and make them permeable to cell membranes. […] The various disaccharides described above and their acylated or aryl derivatives are logical extensions of the present invention. In addition, analogs of the above compounds in which critical hydroxyl groups are missing or alkylated would bind to glycosyltransfersase and inhibit their activity.

[4] = tested on: LS180 colon carcinoma cells; assay: Adhesion of activated human platelets to tumor cells (LS180); format: cell-based; details: 50 μM, 3 days, thrombin-activated human platelets
Description: Adhesion of activated human platelets to tumor cells. Tumor cells were seeded into 6-well plates (5×10^4/well), and allowed to grow into colonies in the presence or absence of 50 μM AcGnG-NM. After 3 days, platelets were isolated from 15 ml of normal human blood collected into 20% (v/v) Acid-Citrate-Dextrose (ACD) anticoagulant. A platelet-rich plasma was prepared by centrifugation and repeated washing using PSG buffer (5 mM HEPES, pH 6.8, 145 mM NaCl, 4 mM KCl, 0.5 mM sodium phosphate, 5.5 mM glucose, 0.5% BSA, and 25 nM prostaglandin E1 [Sigma]). The platelets were then labeled with Calcein AM (5 μM), and counted with a hemocytometer. Wells containing tumor cells were washed with HBSS, and 3×10^6 platelets were added in 1 ml of HBSS followed by activation with human thrombin (0.8 IU/well; Sigma). The plates were rocked for 10 min, and the wells were washed twice with HBSS, fixed with 5% formalin in HBSS, and analyzed by fluorescence microscopy. […]
Platelets bound to tumor cells were visualized by fluorescence microscopy (Nikon Diaphot) equipped with a digital camera (Nikon) linked to an Apple Macintosh computer with Adobe Photoshop software. The fluorescence image showing the platelets was superimposed on a phase-contrast picture of the cells and the number of attached platelets was quantified. […]

[5] = tested on: mucin-like oligosaccharides that carry sLe^X determinants; details: among several disaccharides; cited from earlier work

GlcNAcβ1,3Galβ-O-naphthalenemethanol [AcGnG-NM]
expression of sLe^X on the cell surface [1]: inhibited expression of sLe^X on the cell surface in a dose-dependent manner
spontaneous tumor metastasis (BrdU-labeled cells in the lungs) [2]: Inhibits Spontaneous Tumor Metastasis
formation of sialyl Lewis X [3]: inhibit the formation of sialyl Lewis X
reduction of platelet adhesion [4]: 60%
potency as primer [5]: highest potency
